Measurements: patent US8378117B2 (priority 2005, dated 2013)
Like-named read-outs stand apart in the source and are kept apart here.

How the values were obtained:
[1] = target: T1, CB1 receptor (Homo sapiens, UniProt P21554); test: Binding assay for CB1 agonists or inverse agonists (SK-N-MC membranes, [3H]-CP-55,940); conditions: for IC50: Cannabinoid CB1 Receptor Binding IC50, calculated by linear regression from percent inhibition at various test concentrations
T1 construct: expressed in transfected cells
T1 sequence (P21554 whole entry): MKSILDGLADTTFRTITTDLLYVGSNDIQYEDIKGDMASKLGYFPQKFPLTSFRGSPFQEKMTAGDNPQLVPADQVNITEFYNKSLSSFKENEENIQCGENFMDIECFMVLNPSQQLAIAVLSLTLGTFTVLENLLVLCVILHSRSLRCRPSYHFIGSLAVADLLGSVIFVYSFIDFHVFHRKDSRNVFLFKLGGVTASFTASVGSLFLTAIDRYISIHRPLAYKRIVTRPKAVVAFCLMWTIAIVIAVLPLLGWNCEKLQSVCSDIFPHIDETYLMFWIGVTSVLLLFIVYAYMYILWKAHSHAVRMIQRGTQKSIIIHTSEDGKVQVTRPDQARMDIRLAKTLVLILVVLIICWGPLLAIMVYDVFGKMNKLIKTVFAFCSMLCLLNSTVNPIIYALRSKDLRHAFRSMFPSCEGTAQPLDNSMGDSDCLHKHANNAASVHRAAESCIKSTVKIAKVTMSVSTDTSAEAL
Outline: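 Radioligand displacement: [3H]-CP-55,940 at […], 90 min at 30° C, pH 7.5 Tris buffer with 0.5 mg/mL fatty-acid-free BSA, using semi-purified membranes of human-CB1-transfected SK-N-MC cells. Bound counts collected on GF/C filters, 10 uM WIN 55,212 for non-specific; IC50 from percent inhibition over several concentrations.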

[2] = target: T2, CB2 receptor (Homo sapiens, UniProt P34972); test: Binding assay for CB2 agonists or inverse agonists (SK-N-MC membranes, [3H]-CP-55,940)
T2 construct: expressed in transfected cells
T2 sequence (P34972 whole entry): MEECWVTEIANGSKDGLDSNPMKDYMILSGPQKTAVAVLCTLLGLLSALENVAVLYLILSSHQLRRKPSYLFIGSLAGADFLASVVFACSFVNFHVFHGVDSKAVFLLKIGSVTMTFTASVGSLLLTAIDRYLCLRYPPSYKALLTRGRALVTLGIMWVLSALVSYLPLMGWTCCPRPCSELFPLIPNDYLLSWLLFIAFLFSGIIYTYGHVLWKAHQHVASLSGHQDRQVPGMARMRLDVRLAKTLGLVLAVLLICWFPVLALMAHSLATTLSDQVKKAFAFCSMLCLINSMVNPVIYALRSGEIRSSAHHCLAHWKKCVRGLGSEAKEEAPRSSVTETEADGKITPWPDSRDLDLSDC
Outline: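 IC50 came from percent-inhibition data over several compound concentrations, fitted by linear regression. Binding used semi-purified membranes of human CB2-transfected SK-N-MC cells, 90 min at 30 °C, pH 7.5 Tris-HCl with MgCl2, EDTA and BSA, then filtration and scintillation counting.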

[3] = read-out: CB1 receptor binding percent inhibition, test concentration 0.2 μM (footnote 2)
[4] = read-out: CB2 receptor binding percent inhibition, test concentration 0.2 μM (footnote 2)
[5] = test concentration 0.2 μM (footnote 2)
[6] = test concentration 0.2 μM (footnote 2), read-out: CB2 receptor binding percent inhibition

SMILES | inhibition at 0.2 µM [1, 3] | inhibition at 0.2 µM [2, 6] | also measured
C[C@H](NC(=O)c1nn(-c2ccc(Cl)cc2Cl)c2c1CCCC/C2=C\c1ccc(Cl)cc1)c1ccccc1 [Cpd 139, (8E)-8-(4-chloro-benzylidene)-1-(2,4-dichloro-phenyl)-1,4,5,6,7,8-hexahydro-cycloheptapyrazole-3-carboxylic acid [(1S)-1-phenyl-ethyl]-amide] | 72% | – | IC50 [1]: 50 nM; inhibition at 0.2 µM [2, 4]: 30%
C[C@@H](NC(=O)c1n[nH]c2c1CCCC/C2=C\c1ccc(Cl)cc1)C1CCCCC1 [Cpd 140, (8E)-8-(4-chloro-benzylidene)-1,4,5,6,7,8-hexahydro-cycloheptapyrazole-3-carboxylic acid [(1R)-1-cyclohexyl-ethyl]-amide] | 97% | – | IC50 [1]: 6 nM; CB2 receptor binding percent inhibition [2, 5]: ^(2)100%
C[C@H](NC(=O)c1n[nH]c2c1CCCC/C2=C\c1ccc(Cl)cc1)c1ccccc1 [Cpd 141, (8E)-8-(4-chloro-benzylidene)-1,4,5,6,7,8-hexahydro-cycloheptapyrazole-3-carboxylic acid [(1S)-1-phenyl-ethyl]-amide] | – | – | IC50 [1]: 6 nM; inhibition at 0.2 µM ([1]; read-out: CB1 receptor binding percent inhibition): 95%; CB2 receptor binding percent inhibition [2, 5]: ^(2)97%
C[C@H](NC(=O)c1n[nH]c2c1CCCC/C2=C\c1ccc(Cl)cc1)C1CCCCC1 [Cpd 143, (8E)-8-(4-chloro-benzylidene)-1,4,5,6,7,8-hexahydro-cycloheptapyrazole-3-carboxylic acid [(1S)-1-cyclohexyl-ethyl]-amide] | 99% | – | IC50 [1]: 2 nM; inhibition at 0.002 µM ([1]; read-out: CB1 receptor binding percent inhibition, test concentration 0.002 μM (footnote 11)): 55%; CB1 receptor binding percent inhibition ([1]; test concentration not stated): 77%; CB2 receptor binding percent inhibition [2, 5]: ^(2)100%
O=C(NN1CCCCC1)c1n[nH]c2c1CCCC/C2=C\c1ccc(Cl)cc1 [Cpd 144, (8E)-8-(4-chloro-benzylidene)-1,4,5,6,7,8-hexahydro-cycloheptapyrazole-3-carboxylic acid piperidin-1-ylamide] | 69% | – | IC50 [1]: 30 nM; CB2 receptor binding percent inhibition [2, 5]: ^(2)90%
O=C(NN1CCOCC1)c1n[nH]c2c1CCCC/C2=C\c1ccc(Cl)cc1 [Cpd 145, (8E)-8-(4-chloro-benzylidene)-1,4,5,6,7,8-hexahydro-cycloheptapyrazole-3-carboxylic acid morpholin-4-ylamide] | 54% | 68% | –
O=C(Nc1ccncc1)c1nn(-c2ccc(Cl)cc2Cl)c2c1CCCC/C2=C\c1ccc(Cl)cc1 [Cpd 153, (8E)-8-(4-chloro-benzylidene)-1-(2,4-dichloro-phenyl)-1,4,5,6,7,8-hexahydro-cycloheptapyrazole-3-carboxylic acid pyridin-4-ylamide] | 44% | 0% | –
NS(=O)(=O)c1ccc(NC(=O)c2nn(-c3ccc(Cl)cc3Cl)c3c2CCCC/C3=C\c2ccc(Cl)cc2)cc1 [Cpd 154, (8E)-8-(4-chloro-benzylidene)-1-(2,4-dichloro-phenyl)-1,4,5,6,7,8-hexahydro-cycloheptapyrazole-3-carboxylic acid (4-sulfamoyl-phenyl)-amide] | 33% | 7% | –
CC(C)[C@@H](CO)NC(=O)c1nn(-c2ccc(Cl)cc2Cl)c2c1CCCC[C@@H]2Cc1cccc(Cl)c1 [Cpd 158, (8R)-8-(3-chloro-benzyl)-1-(2,4-dichloro-phenyl)-1,4,5,6,7,8-hexahydro-cycloheptapyrazole-3-carboxylic acid [(1S)-1-hydroxymethyl-2-methyl-propyl]-amide] | 14% | 0% | –
CC(C)[C@@H](CO)NC(=O)c1nn(-c2ccc(Cl)cc2Cl)c2c1CCCC[C@H]2Cc1cccc(Cl)c1 [Cpd 159, (8S)-8-(3-chloro-benzyl)-1-(2,4-dichloro-phenyl)-1,4,5,6,7,8-hexahydro-cycloheptapyrazole-3-carboxylic acid [(1S)-1-hydroxymethyl-2-methyl-propyl]-amide] | 40% | 3% | –
C[C@H](NS(=O)(=O)/C=C/c1n[nH]c2c1CCCCC2Cc1cccc(Cl)c1)c1ccccc1 (stereo partly drawn) [Cpd 160, (2E)-2-[8-(3-chloro-benzyl)-1,4,5,6,7,8-hexahydro-cycloheptapyrazol-3-yl]-ethenesulfonic acid [(1S)-1-phenyl-ethyl]-amide] | 2% | 75% | –
O=C(N[C@H](CO)c1ccccc1)c1nn(-c2ccc(Cl)cc2Cl)c2c1CCCC[C@@H]2Cc1cccc(Cl)c1 [Cpd 161, (8R)-8-(3-chloro-benzyl)-1-(2,4-dichloro-phenyl)-1,4,5,6,7,8-hexahydro-cycloheptapyrazole-3-carboxylic acid [(1S)-2-hydroxy-1-phenyl-ethyl]-amide] | 35% | 3% | –
O=C(N[C@H](CO)c1ccccc1)c1nn(-c2ccc(Cl)cc2Cl)c2c1CCCC[C@H]2Cc1cccc(Cl)c1 [Cpd 162, (8S)-8-(3-chloro-benzyl)-1-(2,4-dichloro-phenyl)-1,4,5,6,7,8-hexahydro-cycloheptapyrazole-3-carboxylic acid [(1S)-2-hydroxy-1-phenyl-ethyl]-amide] | 16% | 5% | –
O=C(N[C@@H](CO)Cc1ccccc1)c1nn(-c2ccc(Cl)cc2Cl)c2c1CCCCC2Cc1cccc(Cl)c1 (stereo partly drawn) [Cpd 163, 8-(3-chloro-benzyl)-1-(2,4-dichloro-phenyl)-1,4,5,6,7,8-hexahydro-cycloheptapyrazole-3-carboxylic acid [(1R)-1-benzyl-2-hydroxy-ethyl]-amide] | 44% | 7% | –
O=C(N[C@H](CO)Cc1ccccc1)c1n[nH]c2c1CCCCC2Cc1cccc(Cl)c1 (stereo partly drawn) [Cpd 166, 8-(3-chloro-benzyl)-1,4,5,6,7,8-hexahydro-cycloheptapyrazole-3-carboxylic acid [(1S)-1-benzyl-2-hydroxy-ethyl]-amide] | 24% | – | inhibition at 0.2 µM [2, 4]: 75%
O=C(N[C@H](CO)c1ccccc1)c1nn(-c2ccc(F)cc2F)c2c1CCCCC2Cc1cccc(F)c1 (stereo partly drawn) [Cpd 168, 1-(2,4-difluoro-phenyl)-8-(3-fluoro-benzyl)-1,4,5,6,7,8-hexahydro-cycloheptapyrazole-3-carboxylic acid [(1S)-2-hydroxy-1-phenyl-ethyl]-amide] | 18% | 11% | –
O=C(N[C@H](CCl)c1ccccc1)c1nn(-c2ccc(F)cc2F)c2c1CCCCC2Cc1cccc(F)c1 (stereo partly drawn) [Cpd 169, 1-(2,4-difluoro-phenyl)-8-(3-fluoro-benzyl)-1,4,5,6,7,8-hexahydro-cycloheptapyrazole-3-carboxylic acid [(1S)-2-chloro-1-phenyl-ethyl]-amide] | 24% | 14% | –
C[C@@H](NC(=O)c1nn(-c2ccncc2)c2c1CCCC/C2=C\c1ccc(Cl)cc1)c1ccccc1 [Cpd 170, (8E)-8-(4-chloro-benzylidene)-1-pyridin-4-yl-1,4,5,6,7,8-hexahydro-cycloheptapyrazole-3-carboxylic acid [(1R)-1-phenyl-ethyl]-amide] | 29% | 27% | –
C[C@H](NC(=O)c1nn(-c2ccncc2)c2c1CCCC/C2=C\c1ccc(Cl)cc1)c1ccccc1 [Cpd 171, (8E)-8-(4-chloro-benzylidene)-1-pyridin-4-yl-1,4,5,6,7,8-hexahydro-cycloheptapyrazole-3-carboxylic acid [(1S)-1-phenyl-ethyl]-amide] | 2% | 38% | –
